Among the data in patent publication US20250011311A1, “AMIDO HETEROAROMATIC COMPOUNDS” (AstraZeneca AB, priority 2022, published 2025) are IC50 and EC50 values, retold here.

In assay [1] the target is over expressed HSD17β9 in HEK293S cells (Homo sapiens (Human), UniProt Q92781). Briefly: In Vitro 17bHSD9 Cell Assay. Format: cell-based. To be noted: HEK293S cells over expressing HSD17β9; retinol to retinal conversion, 18 h, LC-MS/MS; read-out: 17bHSD9 Cell assay IC50. The method, boiled down: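 HEK293S cells overexpressing HSD17β9 were plated at 10K cells/well in DMEM + 10% FBS and cultured 18 h. Retinol-to-retinal conversion in media was quantified by LC-MS/MS (MRM) as retinal/(retinal + retinol). IC50 was fitted after normalisation to DMSO and full inhibition by a reference inhibitor.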

In the next assay the target is CYP2C9 (Homo sapiens (Human), UniProt P11712). In words: Assay B: Cytochrome P450 Inhibition 2C9.
Assay [2] concerns the target human CB1 receptor expressed in transfected CHO cells (Homo sapiens (Human), UniProt P21554). Briefly: Assay C: CB1 Agonism Assay. In kind it is cell-based. To be noted: agonist activity, cAMP HTRF, read-out: Assay C: CB1 Hu CHO cAMP TRF Ag CR GMean EC50. As for the experimental part: Assay C: CB1 Agonism Assay
Evaluation of the agonist activity of compounds at the human CB1 receptor expressed in transfected CHO cells, determined by measuring their effects on cAMP modulation using the HTRF detection method.
Thereafter, the adenylyl cyclase activator NKH 477 is added at a final concentration of 3 μM. Following 20 min incubation at 37° C., the cells are lysed and the fluorescence acceptor (D2-labeled cAMP) and fluorescence donor (anti-cAMP antibody labeled with europium cryptate) are added. After 60 min at room temperature, the fluorescence transfer is measured at gex=337 nm and gem=620 and 665 nm using a microplate reader (RUBYSTAR, BMG). The cAMP concentration is determined by dividing the signal measured at 665 nm by that measured at 620 nm (ratio). The results are expressed as a percent of the control response to 30 nM CP 55940. The standard reference agonist is CP 55940, which is tested in each experiment at several concentrations to generate a concentration-response curve from which its EC50 value is calculated.
Bibliographic reference Felder, C. C. et al., (1995), Comparison of the pharmacology and signal transduction of the human cannabinoid CB1 and CB2 receptors, Mol. Pharmacol., 48: 443, which is incorporated herein by reference.

For assay [3], the target named is over expressed HSD17β13 in HEK293S cells (Homo sapiens (Human), UniProt Q7Z5P4). Briefly: In Vitro 17bHSD13 Cell Assay. To be noted: HEK293S cells over expressing HSD17β13; estradiol to estrone conversion, 18 h, LC-MS/MS; read-out: 17bHSD1713 Cell assay IC50. In kind it is cell-based. The method, boiled down:
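HEK293S cells overexpressing HSD17β13 convert estradiol to estrone; product read by LC-MS/MS (APCI, positive MRM) as AUC ratio estrone/(estrone+estradiol). Effect normalised between DMSO and maximal inhibition by a known inhibitor control; IC50 from curve fit.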

Where only a bound is given, the exact number is not on record here.

Sequence of CYP2C9 (P11712 whole entry): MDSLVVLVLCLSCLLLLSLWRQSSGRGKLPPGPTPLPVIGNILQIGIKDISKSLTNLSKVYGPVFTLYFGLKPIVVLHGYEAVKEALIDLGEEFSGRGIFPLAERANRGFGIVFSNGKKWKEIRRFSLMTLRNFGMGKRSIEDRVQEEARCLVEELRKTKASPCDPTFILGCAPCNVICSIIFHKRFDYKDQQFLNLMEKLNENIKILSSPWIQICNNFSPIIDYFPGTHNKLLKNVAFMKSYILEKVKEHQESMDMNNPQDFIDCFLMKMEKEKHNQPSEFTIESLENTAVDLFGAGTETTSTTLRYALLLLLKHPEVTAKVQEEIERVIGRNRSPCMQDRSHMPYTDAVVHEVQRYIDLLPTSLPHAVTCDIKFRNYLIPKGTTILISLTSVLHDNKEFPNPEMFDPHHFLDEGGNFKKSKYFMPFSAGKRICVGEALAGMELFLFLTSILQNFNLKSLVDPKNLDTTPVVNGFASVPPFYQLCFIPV
Sequence of human CB1 receptor expressed in transfected CHO cells (P21554 whole entry): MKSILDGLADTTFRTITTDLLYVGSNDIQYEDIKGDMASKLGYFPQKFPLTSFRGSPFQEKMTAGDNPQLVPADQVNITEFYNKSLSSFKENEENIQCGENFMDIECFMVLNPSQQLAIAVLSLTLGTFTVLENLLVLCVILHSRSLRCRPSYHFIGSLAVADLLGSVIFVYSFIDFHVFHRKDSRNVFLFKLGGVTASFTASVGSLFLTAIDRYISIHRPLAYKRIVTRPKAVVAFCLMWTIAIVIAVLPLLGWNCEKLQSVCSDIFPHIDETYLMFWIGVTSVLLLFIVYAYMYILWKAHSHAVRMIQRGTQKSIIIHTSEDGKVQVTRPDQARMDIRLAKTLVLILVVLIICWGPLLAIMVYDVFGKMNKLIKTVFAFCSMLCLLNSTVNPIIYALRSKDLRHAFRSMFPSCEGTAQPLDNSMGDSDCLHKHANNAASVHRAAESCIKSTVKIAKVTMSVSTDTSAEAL
Sequence of over expressed HSD17β13 in HEK293S cells (Q7Z5P4 20-300): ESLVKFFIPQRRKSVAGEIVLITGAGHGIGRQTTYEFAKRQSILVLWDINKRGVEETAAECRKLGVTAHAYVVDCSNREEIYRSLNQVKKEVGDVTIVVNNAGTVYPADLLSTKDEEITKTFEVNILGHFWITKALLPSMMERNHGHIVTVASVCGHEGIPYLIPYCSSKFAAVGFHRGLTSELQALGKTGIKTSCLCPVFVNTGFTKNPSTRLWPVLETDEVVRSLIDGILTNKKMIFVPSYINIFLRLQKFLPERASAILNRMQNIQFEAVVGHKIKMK
Sequence of over expressed HSD17β9 in HEK293S cells (Q92781 whole entry): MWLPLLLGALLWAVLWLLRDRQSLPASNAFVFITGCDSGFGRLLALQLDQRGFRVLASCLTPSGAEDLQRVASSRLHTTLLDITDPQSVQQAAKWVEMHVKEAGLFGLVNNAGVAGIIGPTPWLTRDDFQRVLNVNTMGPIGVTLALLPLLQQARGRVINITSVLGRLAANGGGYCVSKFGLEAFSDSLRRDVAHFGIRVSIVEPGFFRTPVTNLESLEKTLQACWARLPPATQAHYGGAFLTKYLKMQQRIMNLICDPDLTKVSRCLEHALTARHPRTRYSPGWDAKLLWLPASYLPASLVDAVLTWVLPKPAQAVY

Broadly, the IC50 is the concentration that gives 50% inhibition. In general, EC50 refers to the midpoint of the concentration-response curve. With `CC(C)[C@H]1CN(C(=O)c2noc(-c3cc(F)c(F)c(O)c3F)n2)C[C@@H](C)O1` (racemic) [Example 122, rac-((2R,6S)-2-isopropyl-6-methylmorpholino)(5-(2,4,5-trifluoro-3-hydroxyphenyl)-1,2,4-oxadiazol-3-yl)methanone], the IC50 in assay [1] amounted to 8.3 µM; on CYP2C9, 4.4 µM; in assay [3], 0.04 µM. Besides, in assay [2], the EC50 came out at 22.3 µM.
As to `C[C@@H]1C[C@H](C)CN(C(=O)c2noc(-c3cc(F)c(F)c(O)c3F)n2)C1` [Example 37, ((3R,5S)-3,5-Dimethylpiperidin-1-yl)(5-(2,4,5-trifluoro-3-hydroxyphenyl)-1,2,4-oxadiazol-3-yl)methanone], the values for the IC50 (in assay [1]; on CYP2C9; in assay [3]) were 10 µM, 7.8 µM and 0.03 µM, respectively. Moreover, the EC50 in assay [2] came to 2.5 µM.
`C[C@@H]1CN(C(=O)c2cc(-c3cc(F)c(F)c(O)c3F)on2)C[C@H](C)O1` [Example 89, ((2R,6S)-2,6-Dimethylmorpholino)(5-(2,4,5-trifluoro-3-hydroxyphenyl)isoxazol-3-yl)methanone]: the figures for the IC50 (in assay [1]; on CYP2C9; in assay [3]) were above 50 µM, 3.7 µM and 0.07 µM, respectively. Besides, the EC50 in assay [2] was found to be 78.2 µM.
For the molecule `N#Cc1cccc2c1CCN(C(=O)c1noc(-c3cc(F)c(F)c(O)c3F)n1)C2` [Example 66, 2-(5-(2,4,5-Trifluoro-3-hydroxyphenyl)-1,2,4-oxadiazole-3-carbonyl)-1,2,3,4-tetrahydroisoquinoline-5-carbonitrile], the values for the IC50 (in assay [1]; at CYP2C9; in assay [3]) were above 50 µM, 3.1 µM and 0.25 µM, respectively. In assay [2], the EC50 worked out at 3.2 µM.
Turning to `N#Cc1ccc2c(c1)CN(C(=O)c1noc(-c3cc(F)c(F)c(O)c3F)n1)CC2` [Example 86, 2-(5-(2,4,5-Trifluoro-3-hydroxyphenyl)-1,2,4-oxadiazole-3-carbonyl)-1,2,3,4-tetrahydroisoquinoline-7-carbonitrile], the IC50 in assay [1] is 21.1 µM; on CYP2C9, 4 µM; in assay [3], 0.54 µM. Further, the EC50 in assay [2] was determined as 5.7 µM.
For the molecule `COc1ccccc1C1CCN(C(=O)c2noc(-c3cc(F)c(F)c(O)c3F)n2)C1` (stereo not shown) [Example 4, (3-(2-Methoxyphenyl)pyrrolidin-1-yl)(5-(2,4,5-trifluoro-3-hydroxyphenyl)-1,2,4-oxadiazol-3-yl)methanone], the IC50 in assay [1] was 13 µM; at CYP2C9, 0.6 µM; in assay [3], 0.08 µM. In assay [2], the EC50 was found to be 1.9 µM.
For `O=C(c1noc(-c2ccc(F)c(O)c2)n1)N1CC[C@H](c2ccccc2)C1` [Example 11, (R)-(5-(4-Fluoro-3-hydroxyphenyl)-1,2,4-oxadiazol-3-yl)(3-phenylpyrrolidin-1-yl)methanone], in that order: above 50 µM, 12.8 µM, 0.8 µM and 3.1 µM.
Take `C[C@@H]1CN(C(=O)c2ccc(-c3cc(F)c(F)c(O)c3F)s2)C[C@H](C)O1` [Example 3, ((2R,6S)-2,6-Dimethylmorpholino)(5-(2,4,5-trifluoro-3-hydroxyphenyl)thiophen-2-yl)methanone]: the IC50 was above 50 µM in assay [1], 1.6 µM on CYP2C9 and 0.03 µM in assay [3]. The EC50 in assay [2] was above 100 µM.
Regarding `CC1CN(C(=O)c2noc(-c3cc(F)c(F)c(O)c3F)n2)CC(C)(C)O1` (stereo not shown) [Example 117, (5-(2,4,5-Trifluoro-3-hydroxyphenyl)-1,2,4-oxadiazol-3-yl)(2,2,6-trimethylmorpholino)methanone], the IC50 was above 50 µM in assay [1], 4.9 µM on CYP2C9 and 0.09 µM in assay [3]. The EC50 in assay [2] is 0.5 µM.
In the case of `C[C@@H]1C[C@H](C)CN(C(=O)c2nc(-c3cc(F)c(F)c(O)c3F)no2)C1` [Example 111, ((3R,5S)-3,5-Dimethylpiperidin-1-yl)(3-(2,4,5-trifluoro-3-hydroxyphenyl)-1,2,4-oxadiazol-5-yl)methanone], the figures for the IC50 (in assay [1]; against CYP2C9; in assay [3]) were above 50 µM, 4.9 µM and 0.1 µM, respectively. The EC50 in assay [2] was 3.4 µM.
For the molecule `C[C@@H]1CN(C(=O)c2cnc(-c3cc(F)c(F)c(O)c3F)s2)C[C@H](C)O1` [Example 120, ((2R,6S)-2,6-Dimethylmorpholino)(2-(2,4,5-trifluoro-3-hydroxyphenyl)thiazol-5-yl)methanone], the IC50 is above 50 µM in assay [1], 12.8 µM at CYP2C9 and 0.14 µM in assay [3]. The EC50 in assay [2] is 8.5 µM.
Take `O=C(c1noc(-c2cc(F)c(F)c(O)c2F)n1)N1CCO[C@H]2CCC[C@@H]21` [Example 115, ((4aS,7aS)-Hexahydrocyclopenta[b][1,4]oxazin-4(4aH)-yl)(5-(2,4,5-trifluoro-3-hydroxyphenyl)-1,2,4-oxadiazol-3-yl)methanone]: the values for the half-maximal inhibitory concentration (IC50) (in assay [1]; against CYP2C9; in assay [3]) were 32.5 µM, 9.8 µM and 0.1 µM, respectively. The EC50 in assay [2] was above 100 µM.
Turning to `O=C(c1noc(-c2cc(C(F)(F)F)[nH]c(=O)c2)n1)N1CCC(c2ccccc2)C1` (stereo not shown) [Example 9, 4-(3-(3-Phenylpyrrolidine-1-carbonyl)-1,2,4-oxadiazol-5-yl)-6-(trifluoromethyl)pyridin-2(1H)-one], the IC50 was 24.9 µM in assay [1], 5.7 µM against CYP2C9 and 5.55 µM in assay [3].
Turning to `O=C(c1ccc(-c2cc(F)c(F)c(O)c2F)s1)N1CC[C@H](c2ccccc2)C1` [Example 33, (R)-(3-Phenylpyrrolidin-1-yl)(5-(2,4,5-trifluoro-3-hydroxyphenyl)thiophen-2-yl)methanone], the IC50 is above 50 µM in assay [1], 0.2 µM against CYP2C9 and 1.21 µM in assay [3].
As to `O=C(c1noc(-c2cc(F)c(F)c(O)c2F)n1)N1CC(c2ccc(F)cc2)C1` [Example 74, (3-(4-Fluorophenyl)azetidin-1-yl)(5-(2,4,5-trifluoro-3-hydroxyphenyl)-1,2,4-oxadiazol-3-yl)methanone], the IC50 in assay [1] was above 50 µM; against CYP2C9, 1.8 µM; in assay [3] it was 3 µM.
As for `O=C(c1noc(-c2cc(F)c(F)c(O)c2F)n1)N1CCCC(OCc2ccccc2)C1` (stereo not shown) [Example 94, (3-(Benzyloxy)piperidin-1-yl)(5-(2,4,5-trifluoro-3-hydroxyphenyl)-1,2,4-oxadiazol-3-yl)methanone], the IC50 in assay [1] was above 50 µM; at CYP2C9, 1.2 µM; in assay [3], 1.42 µM.
For `O=C(c1noc(-c2cc(F)c(F)c(O)c2F)n1)N1CCO[C@@H]2CCC[C@H]21` [Example 114, ((4aR,7aR)-Hexahydrocyclopenta[b][1,4]oxazin-4(4aH)-yl)(5-(2,4,5-trifluoro-3-hydroxyphenyl)-1,2,4-oxadiazol-3-yl)methanone], the IC50 in assay [1] came out at 15.8 µM; against CYP2C9, 7.2 µM; in assay [3], 0.12 µM. In assay [2], the half-maximal effective concentration (EC50) stood at 60.5 µM.
Regarding `C[C@@H]1CC[C@H](C)N1C(=O)c1noc(-c2cc(F)c(F)c(O)c2F)n1` [Example 38, ((2R,5S)-2,5-Dimethylpyrrolidin-1-yl)(5-(2,4,5-trifluoro-3-hydroxyphenyl)-1,2,4-oxadiazol-3-yl)methanone], the half-maximal inhibitory concentration (IC50) in assay [1] turned out to be 8.7 µM; on CYP2C9, 14.8 µM; in assay [3], 0.27 µM.
For the molecule `O=C(c1noc(-c2cc(F)c(F)c(O)c2F)n1)N1CC(Oc2ccccc2)C1` [Example 2, (3-Phenoxyazetidin-1-yl)(5-(2,4,5-trifluoro-3-hydroxyphenyl)-1,2,4-oxadiazol-3-yl)methanone], the IC50 is above 50 µM in assay [1], 1.8 µM against CYP2C9 and 1.61 µM in assay [3].
Turning to `CCCC1CCN(C(=O)c2noc(-c3cc(F)c(F)c(O)c3F)n2)C1` (stereo not shown) [Example 76, (3-Propylpyrrolidin-1-yl)(5-(2,4,5-trifluoro-3-hydroxyphenyl)-1,2,4-oxadiazol-3-yl)methanone], the IC50 came out at 19.6 µM in assay [1], 2.6 µM against CYP2C9 and 0.14 µM in assay [3].
Turning to `O=C(c1noc(-c2cc(F)c(F)c(O)c2F)n1)N1CCN(CCCOc2ccc(F)cc2)CC1` [Example 57, (4-(3-(4-Fluorophenoxy)propyl)piperazin-1-yl)(5-(2,4,5-trifluoro-3-hydroxyphenyl)-1,2,4-oxadiazol-3-yl)methanone], the IC50 is above 50 µM in assay [1], 3.7 µM against CYP2C9 and 0.14 µM in assay [3].
